From US20260306640A1, “TECHNOLOGIES TARGETING CELL STATES” (Auron Therapeutics, Inc., priority 2023, published 2026)

Columns and labels:
Assay type in all cases: cell-based
[1] = biological target: T1, KAT2A (Homo sapiens, UniProt Q92830); assay: KAT2A degradation, Western Blot (Jess), MOLM-13 cells; design: degrader, Western blot; conditions: MOLM-13 cells, KAT2A, 24 h, Western Blot, vs DMSO; read-out: KAT2A MOLM-13 DC50
How it was run: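 MOLM-13 cells in RPMI 1640/20% FBS were treated with compound for 24 h at 37 °C. RIPA lysates (4 μg) were run on a capillary Western (Jess) with anti-KAT2A antibody and chemiluminescent detection. DC50 comes from percent protein reduction versus DMSO control.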

[2] = biological target: T1, KAT2A; assay: KAT2A degradation, Western Blot (Jess), NCI-H1048 cells; design: degrader, Western blot (Jess); conditions: NCI-H1048 cells, KAT2A, 24 h, Western Blot, vs DMSO; read-out: KAT2A NCI-H1048 DC50
How it was run: (§1)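 NCI-H1048 cells grown in HITES medium with 5% FBS were treated with compounds for 24 h at 37° C. Lysates were run by capillary Western (Jess) with KAT2A or KAT2B antibodies and chemiluminescent detection. DC50 derived from percent protein reduction versus DMSO control.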

[3] = biological target: KAT2B (Homo sapiens, UniProt Q92831); assay: KAT2B degradation, Western Blot (Jess), NCI-H1048 cells; design: degrader, Western blot (Jess); conditions: NCI-H1048 cells, KAT2B, 24 h, Western Blot, vs DMSO; read-out: KAT2B NCI-H1048 DC50
How it was run: as §1

KAT2B, sequence (Q92831 whole entry): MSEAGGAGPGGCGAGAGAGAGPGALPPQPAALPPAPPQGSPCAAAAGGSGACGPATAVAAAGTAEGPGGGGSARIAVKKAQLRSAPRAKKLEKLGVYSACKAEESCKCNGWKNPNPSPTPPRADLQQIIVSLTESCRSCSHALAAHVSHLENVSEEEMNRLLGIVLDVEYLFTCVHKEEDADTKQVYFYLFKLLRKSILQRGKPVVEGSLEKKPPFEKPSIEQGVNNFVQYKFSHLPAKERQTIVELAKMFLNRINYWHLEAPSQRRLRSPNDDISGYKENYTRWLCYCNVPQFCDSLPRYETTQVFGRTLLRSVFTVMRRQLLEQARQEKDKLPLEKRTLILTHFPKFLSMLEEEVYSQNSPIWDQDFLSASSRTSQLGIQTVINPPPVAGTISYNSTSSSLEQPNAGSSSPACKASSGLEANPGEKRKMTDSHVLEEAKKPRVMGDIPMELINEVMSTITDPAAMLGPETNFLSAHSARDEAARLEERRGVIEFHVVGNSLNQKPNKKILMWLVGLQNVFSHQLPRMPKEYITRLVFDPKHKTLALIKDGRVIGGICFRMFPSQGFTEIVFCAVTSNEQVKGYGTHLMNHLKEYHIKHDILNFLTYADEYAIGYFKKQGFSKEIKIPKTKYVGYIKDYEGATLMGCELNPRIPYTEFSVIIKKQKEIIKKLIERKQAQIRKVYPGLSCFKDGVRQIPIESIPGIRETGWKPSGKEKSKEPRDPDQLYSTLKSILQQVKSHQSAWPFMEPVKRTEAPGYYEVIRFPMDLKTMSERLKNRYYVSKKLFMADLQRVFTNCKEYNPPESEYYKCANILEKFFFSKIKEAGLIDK
T1 sequence (Q92830 whole entry): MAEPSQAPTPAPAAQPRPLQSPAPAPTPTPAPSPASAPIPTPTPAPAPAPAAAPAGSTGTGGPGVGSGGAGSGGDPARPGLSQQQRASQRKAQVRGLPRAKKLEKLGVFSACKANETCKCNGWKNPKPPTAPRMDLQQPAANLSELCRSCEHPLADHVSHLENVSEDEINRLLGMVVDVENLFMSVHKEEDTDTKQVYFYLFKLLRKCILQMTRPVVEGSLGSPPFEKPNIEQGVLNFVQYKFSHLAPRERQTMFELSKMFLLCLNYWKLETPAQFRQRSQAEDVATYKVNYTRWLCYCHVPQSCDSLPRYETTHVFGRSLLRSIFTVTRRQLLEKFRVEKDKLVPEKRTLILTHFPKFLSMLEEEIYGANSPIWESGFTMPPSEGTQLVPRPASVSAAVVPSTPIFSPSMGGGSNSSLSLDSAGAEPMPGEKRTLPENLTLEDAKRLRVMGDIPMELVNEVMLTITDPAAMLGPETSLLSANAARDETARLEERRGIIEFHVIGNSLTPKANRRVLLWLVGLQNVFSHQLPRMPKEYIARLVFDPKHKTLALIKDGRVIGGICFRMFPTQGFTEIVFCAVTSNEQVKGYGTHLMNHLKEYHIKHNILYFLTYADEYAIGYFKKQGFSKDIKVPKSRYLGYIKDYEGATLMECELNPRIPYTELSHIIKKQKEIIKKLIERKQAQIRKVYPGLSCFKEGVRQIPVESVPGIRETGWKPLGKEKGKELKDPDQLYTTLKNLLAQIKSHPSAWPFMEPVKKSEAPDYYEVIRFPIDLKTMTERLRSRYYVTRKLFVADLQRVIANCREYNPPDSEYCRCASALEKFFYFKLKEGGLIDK

DC50 [1]	DC50 [2]	DC50 [3]	Compound
> 30 nM			CN1C[C@H](Nc2cnn(C)c(=O)c2Br)C[C@H](c2ccc(C(=O)N3CCC(N4CCN(C5CCC(=O)NC5=O)CC4)CC3)cc2)C1 (some centres unmarked) [Compound 161]
< 1 nM			CN1C[C@H](Nc2cnn(C)c(=O)c2Cl)C[C@H](c2ccc(C(=O)N3CCC4(CC3)CCN(c3cccc(C5CCC(=O)NC5=O)c3)CC4)cc2)C1 (some centres unmarked) [Compound 163]
1 to 30 nM			CN1C[C@H](Nc2cnn(C)c(=O)c2Cl)C[C@H](c2ccc(CN3Cc4cc5c(cc4C3)C(=O)N(C3CCC(=O)NC3=O)C5=O)cc2)C1 (some centres unmarked) [Compound 164]
< 1 nM			Cc1ccc(N2CCN(Cc3ccc([C@H]4C[C@@H](Nc5cnn(C)c(=O)c5Br)CN(C)C4)cc3)CC2)cc1C1CCC(=O)NC1=O (some centres unmarked) [Compound 165]
< 1 nM			Cc1cc(N2CCC3(CCN(Cc4ccc([C@H]5C[C@@H](Nc6cnn(C)c(=O)c6Br)CN(C)C5)cc4)CC3)CC2)ccc1C1CCC(=O)NC1=O (some centres unmarked) [Compound 166]
< 1 nM			CN1C[C@H](Nc2cnn(C)c(=O)c2Br)C[C@H](c2ccc(C(=O)N3CCC4(CC3)CCN(c3ccc(F)c(C5CCC(=O)NC5=O)c3)CC4)cc2)C1 (some centres unmarked) [Compound 169]
< 1 nM			CN1C[C@H](Nc2cnn(C)c(=O)c2Cl)C[C@H](c2ccc(CN3CCC4(CC3)CCN(c3cccc(C5CCC(=O)NC5=O)c3)CC4)cc2)C1 (some centres unmarked) [Compound 170]
> 30 nM			C#Cc1c(N[C@@H]2C[C@H](c3ccc(CN4CCC(c5ccc6c(c5)CN(C5CCC(=O)NC5=O)C6=O)CC4)cc3)CN(C)C2)cnn(C)c1=O (some centres unmarked) [Compound 171]
1 to 30 nM			CN1C[C@H](Nc2cnn(C)c(=O)c2Br)C[C@H](c2ccc(C(=O)N3CCC(c4ccc5c(c4)CN(C4CCC(=O)NC4=O)C5=O)CC3)cc2)C1 (some centres unmarked) [Compound 172]
1 to 30 nM			CN1C[C@H](Nc2cnn(C)c(=O)c2Br)C[C@H](c2ccc(CN3CCC(c4ccc(OC5CCC(=O)NC5=O)cc4)CC3)cc2)C1 (some centres unmarked) [Compound 173]
< 1 nM			CN1C[C@H](Nc2cnn(C)c(=O)c2Br)C[C@H](c2ccc(CN3CCC4(CC3)CCN(c3ccc(F)c(C5CCC(=O)NC5=O)c3)CC4)cc2)C1 (some centres unmarked) [Compound 174]
< 1 nM			CN1C[C@H](Nc2cnn(C)c(=O)c2Cl)C[C@H](c2ccc(C(=O)N3CCN(c4ccc5c(c4)C(=O)N(C4CCC(=O)NC4=O)C5=O)CC3)cc2)C1 (some centres unmarked) [Compound 176]
> 30 nM			CN1C[C@H](Nc2cnn(C)c(=O)c2Br)C[C@H](c2ccc(C(=O)N3CCN(CC4CCN(C5CCC(=O)NC5=O)CC4)CC3)cc2)C1 (some centres unmarked) [Compound 177]
1 to 30 nM			Cc1ccc(N2CCC3(CCN(Cc4ccc([C@H]5C[C@@H](Nc6cnn(C)c(=O)c6Br)CN(C)C5)cc4)CC3)CC2)cc1C1CCC(=O)NC1=O (some centres unmarked) [Compound 178]
< 1 nM			Cc1ccc(N2CCC3(CCN(C(=O)c4ccc([C@H]5C[C@@H](Nc6cnn(C)c(=O)c6Br)CN(C)C5)cc4)CC3)CC2)cc1C1CCC(=O)NC1=O (some centres unmarked) [Compound 179]
< 1 nM			CN1C[C@H](Nc2cnn(C)c(=O)c2Br)C[C@H](c2ccc(CN3CCN(c4ccc5c(c4)oc(=O)n5C4CCC(=O)NC4=O)CC3)cc2)C1 (some centres unmarked) [Compound 180]
1 to 30 nM			CN1C[C@H](Nc2cnn(C)c(=O)c2Br)C[C@H](c2ccc(C(=O)N3CCN(c4ccc5c(c4)oc(=O)n5C4CCC(=O)NC4=O)CC3)cc2)C1 (some centres unmarked) [Compound 181]
< 1 nM			CN1C[C@H](Nc2cnn(C)c(=O)c2Br)C[C@H](c2ccc(CN3CC(Oc4ccc(C5CCC(=O)NC5=O)cc4)C3)cc2)C1 (some centres unmarked) [Compound 182]
1 to 30 nM			CN1C[C@H](Nc2cnn(C)c(=O)c2Br)C[C@H](c2ccc(C(=O)N3CC(Oc4ccc(C5CCC(=O)NC5=O)cc4)C3)cc2)C1 (some centres unmarked) [Compound 183]
< 1 nM			CN1C[C@H](Nc2cnn(C)c(=O)c2Br)C[C@H](c2ccc(C(=O)N3CC(Oc4cccc(C5CCC(=O)NC5=O)c4)C3)cc2)C1 (some centres unmarked) [Compound 185]

Further lines, the compound ahead of its results:

Compound	DC50 [1]	DC50 [2]	DC50 [3]
CN1C[C@H](Nc2cnn(C)c(=O)c2Cl)C[C@H](c2ccc(C(=O)N3CC4(CC(Oc5ccc(C6CCC(=O)NC6=O)c(F)c5)C4)C3)cc2)C1 (some centres unmarked) [Compound 2-44]	1 to 30 nM	< 1 nM	< 1 nM
CN1C[C@H](Nc2cnn(C)c(=O)c2Br)C[C@H](c2ccc(CN3CCN(c4ccc5c(c4)C(=O)N(C4CCC(=O)NC4=O)C5=O)CC3)cc2)C1 (some centres unmarked) [Compound 28]	< 1 nM	< 1 nM	< 1 nM
CN1C[C@H](Nc2cnn(C)c(=O)c2Br)C[C@H](c2ccc(CN3CCN(c4ccc5c(c4)CN(C4CCC(=O)NC4=O)C5=O)CC3)cc2)C1 (some centres unmarked) [Compound 67]	< 1 nM	< 1 nM	< 1 nM
CN1C[C@H](Nc2cnn(C)c(=O)c2Cl)C[C@H](c2ccc(CN3CCN(c4ccc5c(c4)CN(C4CCC(=O)NC4=O)C5=O)CC3)cc2)C1 (some centres unmarked) [Compound 72]	< 1 nM	< 1 nM	< 1 nM
CN1C[C@H](Nc2cnn(C)c(=O)c2Cl)C[C@H](c2ccc(COc3ccc4c(c3)C(=O)N(C3CCC(=O)NC3=O)C4=O)cc2)C1 (some centres unmarked) [Compound 110]	1 to 30 nM	1 to 30 nM	1 to 30 nM
Cc1cc(OC2CCN(C(=O)c3ccc([C@H]4C[C@@H](Nc5cnn(C)c(=O)c5Br)CN(C)C4)cc3)CC2)ccc1C1CCC(=O)NC1=O (some centres unmarked) [Compound 114]	< 1 nM	< 1 nM	> 30 nM
CN1C[C@H](Nc2cnn(C)c(=O)c2Br)C[C@H](c2ccc(C(=O)N3CCC(Oc4cccc(C5CCC(=O)NC5=O)c4)CC3)cc2)C1 (some centres unmarked) [Compound 120]	1 to 30 nM	< 1 nM	> 30 nM
Cc1cc(OC2CCN(Cc3ccc([C@H]4C[C@@H](Nc5cnn(C)c(=O)c5Br)CN(C)C4)cc3)CC2)ccc1C1CCC(=O)NC1=O (some centres unmarked) [Compound 123]	< 1 nM	< 1 nM	> 30 nM
CN1C[C@H](Nc2cnn(C)c(=O)c2Br)C[C@H](c2ccc(C(=O)N3CCC(Oc4ccc(C5CCC(=O)NC5=O)cc4F)CC3)cc2)C1 (some centres unmarked) [Compound 124]	< 1 nM	< 1 nM	1 to 30 nM
CN1C[C@H](Nc2cnn(C)c(=O)c2Br)C[C@H](c2ccc(CN3CCC(Oc4ccc(C5CCC(=O)NC5=O)cc4F)CC3)cc2)C1 (some centres unmarked) [Compound 125]	< 1 nM	< 1 nM	> 30 nM
CN1C[C@H](Nc2cnn(C)c(=O)c2Br)C[C@H](c2ccc(C(=O)N3CCC4(CC3)CN(c3ccc(C5CCC(=O)NC5=O)cc3)C4)cc2)C1 (some centres unmarked) [Compound 126]	< 1 nM	< 1 nM	1 to 30 nM
CN1C[C@H](Nc2cnn(C)c(=O)c2Br)C[C@H](c2ccc(CN3CCN(c4ccc(F)c(C5CCC(=O)NC5=O)c4)CC3)cc2)C1 (some centres unmarked) [Compound 152]	1 to 30 nM	< 1 nM	1 to 30 nM
CN1C[C@H](Nc2cnn(C)c(=O)c2Cl)C[C@H](c2ccc(CN3CCC4(CC3)CCN(c3ccc(C5CCC(=O)NC5=O)cc3)CC4)cc2)C1 (some centres unmarked) [Compound 155]	< 1 nM	< 1 nM	< 1 nM
CN1C[C@H](Nc2cnn(C)c(=O)c2Br)C[C@H](c2ccc(CN3CCC4(CC3)CCN(c3ccc(C5CCC(=O)NC5=O)cc3F)CC4)cc2)C1 (some centres unmarked) [Compound 158]	< 1 nM		
CN1C[C@H](Nc2cnn(C)c(=O)c2Br)C[C@H](c2ccc(CN3CC4(C3)CN(c3ccc(C5CCC(=O)NC5=O)cc3)C4)cc2)C1 (some centres unmarked) [Compound 159]	1 to 30 nM		
CN1C[C@H](Nc2cnn(C)c(=O)c2Br)C[C@H](c2ccc(CN3CC4(C3)CN(c3cccc(C5CCC(=O)NC5=O)c3)C4)cc2)C1 (some centres unmarked) [Compound 160]	> 30 nM		
